# Assay results: patent US8217030B2, “Association of a sinus node if current inhibitor and a beta blocker” (Les Laboratoires Servier, priority 2008, dated 2012)
# Legend:
# [1] = test system: patients with angina pectoris treated with β-blockers; assay: treadmill exercise tolerance test (ETT), Bruce protocol, clinical study; format: in vivo, human
# Method: (§1) The patients selected for this clinical study are men and women from 18 to 75 years of age who have suffered from angina pectoris for at least 3 months and been treated with β-blockers such as atenolol (50 mg o.d.) or any other β-blocker at an equivalent dose for at least 3 months. These patients have, despite their treatment, a positive exercise tolerance test (ETT) and daily symptoms of angina pectoris.
# (§2) This double-blind, parallel-group, international clinical study was carried out in 889 patients. The patients, all of whom are receiving atenolol, are randomised into two groups: • in addition to the β-blocker, the first group is given ivabradine (hydrochloride) at a dose of 5 mg twice a day for two months and then at a dose of 7.5 mg twice a day for a further two months; • in addition to the β-blocker, the second group is given a placebo for 4 months.
# The patients are subjected to a treadmill exercise tolerance test (ETT) in accordance with the Bruce protocol before ivabradine is administered (that is when receiving β-blocker on its own), and after 4 months of treatment with the association between ivabradine and atenolol. The principal parameters measured in the course of the effort test are: • total exercise duration (TED)—the TED includes the time taken for the treadmill to come to a stop or, that is, a duration of about 10 seconds starting from the patient's request to stop the exercise; • the time until the “angina pectoris” pain forces the patient to stop the exercise (TLA); • the time until the onset of the “angina pectoris” pain (TAO); • the time taken for a 1 mm ST segment depression (TST) to appear on the electrocardiographic recording, this being a reflection of ischaemia and corresponding to the electrical sign of pain in the cardiac muscle.
# These measurements are made at trough activity of the association of active ingredients or, that is, 12±1 hours and 24±2 hours after administration of the active ingredients.
# The mean improvements in the various parameters measured during the treadmill exercise test, between the value measured before the start of treatment with ivabradine and the end of the treatment period, are set out in the table below: […]
# [2] = test system: patients with angina pectoris treated with β-blockers; assay: heart rate at rest in clinical study; format: in vivo, human; conditions: after 4 months of treatment; heart rate at rest on entry 67±7 beats per minute
# Method: as §1, §2
# The patients have a mean age of 60±8 years. On entry into the study, the mean systolic/diastolic arterial pressure and heart rate of the patients at rest are respectively, on average: 127±12/78±7 mmHg and 67±7 beats per minute. After 4 months of treatment with the association, the heart rate has reduced by 9±10 bpm (β-blocker+placebo 1±10 bpm).
# [3] = mean ± SD, before ivabradine vs after 4 months of treatment, on top of atenolol, at trough activity
SMILES,exercise tolerance ([1]; patients already receiving a standard dose of β-blockers),"Improvement in time taken for a 1 mm ST segment depression (TST) [1, 3] [s]","Improvement in time until angina pectoris pain forces the patient to stop the exercise (TLA) [1, 3] [s]","Improvement in time until onset of angina pectoris pain (TAO) [1, 3] [s]","Improvement in total exercise duration (TED) ([1]; mean ± SD, before ivabradine vs after 4 months of treatment, on top of atenolol, ivabradine 5 mg b.i.d. 2 months then 7.5 mg b.i.d. 2 months, at trough activity) [s]",reduction of heart rate [2] [bpm]
"COc1cc2c(cc1OC)CC(=O)N(CCCN(C)C[C@H]1Cc3cc(OC)c(OC)cc31)CC2 [ivabradine, 3-{3-[{[(7S)-3,4-dimethoxybicyclo[4.2.0]octa-1,3,5-trien-7-yl]methyl}(methyl)amino]propyl}-7,8-dimethoxy-1,3,4,5-tetrahydro-2H-3-benzazepin-2-one]",capable of improving exercise tolerance,–,–,–,–,–
"CC(C)NCC(O)COc1ccc(CC(N)=O)cc1 (stereo not drawn) [β-blocker + placebo, atenolol]",–,15 ± 87,9 ± 64,23 ± 79,8 ± 64,1±10
